Where two headings read alike, the source gives them in different places.
Key:
Type in all cases: cell-based
HIV-1NL4-3 = assay: HIV-1 replication assay in PBMCs (p24Gag ELISA); conditions: Day 12
Experimental: PBMCs from HIV-1 negative subjects, purchased commercially (StemCell Technologies, Vancouver, Canada), were maintained in RPMI-1640 media (Sigma) supplemented with penicillin/streptomycin plus 10% fetal calf serum (R10+). 72 h prior to viral infection, PBMCs were stimulated by addition of 5 μg/mL phytohaemaglutanin (PHA) (Day 0) and maintained in R10+ medium supplemented with 100 units/mL human IL-2. At Day 3 following cellular activation, 3x10^5 cells were infected with HIV-1NL4-3 at a multiplicity of infection of 0.003 (0.3% infected cells) and incubated at 37°C for 6h, followed by wash and re-suspension in fresh R10+ medium supplemented with 100 units/mL human IL-2 and with or without compounds at defined concentrations. Culture supernatants were collected and replaced with fresh medium supplemented with human IL-2 every 3 days (i.e., Days 6, 9, and 12) with or without fresh compounds. Viral replication at day 12 was monitored by measuring cell culture supernatant levels of p24^Gag by ELISA (XpressBio, Frederick, MD) following manufacturer’s instructions.

[1] = PBMC cytotoxicity (ViaCount Assay); conditions: human, all assessed concentrations, read-out: PBMC viability relative to PBMCs in 0.1% DMSO
Experimental: Cytotoxicity was determined by ViaCount Assay (Millipore). Briefly, Day 3 PHA-activated PBMCs (3*10^5) were cultured in R10+ supplemented with 100 units/mL human IL-2 in the presence of 0.1% DMSO or compounds at defined concentrations. At Day 5, 15 μL of each PBMC culture was mixed with Guava ViaCount Reagent at a 1:10 dilution. Data were collected using a Guava EasyCyte HT Flow Cytometer (Millipore).

HIV-1RT = assay: microbe, parasite or virus in culture; conditions: for EC50: Human immunodeficiency virus 1, CEM-GXR, 96 h, read-out: EC50 HIV-1RT
Experimental: CEM-GXR cells are an immortalized CD4+ T-lymphocyte line engineered that naturally express the HIV-1 coreceptor CXCR4 and have been further engineered to express the HIV-1 co-receptor CCR5 and a Tat-driven LTR-GFP expression cassette. As such, intracellular GFP expression indicates HIV-1 infection [26]. Cultures of 10^5 CEM-GXR cells were seeded into 96-well plates with RPMI-1640 media (Sigma) supplemented with penicillin/streptomycin plus 20% fetal calf serum (R20+), infected with HIV-1 at a multiplicity of infection of 0.03 (to achieve 3% infected cells on Day 2), and incubated at 37°C and 5% CO2. 24 hours later, cells were pelleted at 750 g and resuspended in R20+ containing compound or 0.1% DMSO. […] Cells were then incubated at 37°C and 5% CO2 for an additional 72 h. 5,000 cells from each culture were measured for cell toxicity and GFP expression by flow cytometry. […] Background GFP expression in uninfected cultures was set at 0.05% GFP-positive cells. For each experiment, all data points were obtained in triplicate. All data are reported as the mean ± s.e.m. from at least 3 independent experiments performed with different virus stocks and/or performed on different days. […] EC50 and CC50 values for each compound were calculated from at least four concentrations. Statistical analyses were performed using Student’s unpaired t test, with a p value < 0.05 plus a Bonferroni correction to adjust for multiple comparisons considered significant.

[2] = system: HCV J4(1b)/JFH1(2a) chimera; assay: HCV replication assay in Huh-7.5 cells (NS5A flow cytometry); conditions: Hepatitis C virus, Huh7.5, 72 h
Experimental: The intergenotypic chimeric HCV used in this study—Bi-Gluc-J4(1b)/JFH1(2a) containing cell culture adaptive mutations in NS2 (T2996C) and NS3 (A4827T)—was previously described and subsequently modified to express Gaussia luciferase in the first cistron. HCV stocks used for infection were generated by electroporation of in vitro transcribed RNA into Huh-7.5.1 cells and pooling of supernatants harvested between 60–96 hr post-electroporation. HCV infectivity was determined by limiting dilution assay as previously described.
HCV cell culture was performed as described previously. Briefly, 4*10^4 Huh-7.5 cells were seeded into 24-well plates and incubated at 37°C and 5% CO2 overnight. Cells were then infected with HCV (multiplicity of infection = 0.3) for 6 hours, followed by removal of HCV and incubation with fresh medium containing compounds at stated concentrations. Cultures were then incubated for 72 hours, with no more than 0.1% DMSO present in culture medium. Cells were then trypsinized, resuspended in culture medium, and stained with the 9E10 alexa-fluor-conjugated antibody to NS5A [27]. Cells were fixed and analyzed for NS5A fluorescence by flow cytometry, and data were analyzed using FlowJo software. […] For each culture, NS5A fluorescence was determined as the percent gated cells relative to percent gated cells in infected cultures plus 0.1% DMSO. All experiments were performed in at least duplicate in at least two independent experiments.
We therefore assessed the effects of ixoratannin A-2, boldine, and BIT-225 on replication of HCV, which also encodes a viral ion channel and protease. Using an established cell culture system, Huh-7.5 cells were infected with an intergenotypic chimera between the J4 (genotype 1b) and JFH1 (genotype 2a) strain of HCV for 6 hours, followed by incubation with fresh medium containing compounds at defined concentrations. Infected cells were then incubated for an additional 72 hours. NS5A expression, a marker of HCV infection, was then detected by flow cytometry.

[3] = read-out: inhibition of HCV replication

Structure (SMILES) | reduced HIV-1 replication in PBMCs (p24Gag) (HIV-1NL4-3; 100 μM) [%] | viability [1] [%] | EC50 (HIV-1RT) [µM] | inhibition of HIV-1RT (HIV-1RT; concentrations up to 75 or 100 μM, CEM-GXR cells) [%] | inhibition at 50 µM [2, 3] [%] | reduced HIV-1 replication in PBMCs (p24Gag) (HIV-1NL4-3; 25 μM) [%] | viability ([1]; PHA-activated PBMCs) [%] | EC50 ([2]; read-out: EC50 HCV replication) [µM] | inhibition at 30 µM [2, 3] [%]
COc1cc2c(cc1O)C[C@H]1c3c(cc(O)c(OC)c3-2)CCN1C [boldine] | 47.0 | > 85 | > 100 | < 50 | 36 |  |  |  | 
Oc1cc(O)c2c(c1)OC1(c3ccc(O)c(O)c3)Oc3c4c(c5c(c3C2C1O)OC1(c2ccc(O)c(O)c2)Oc2cc(O)cc(O)c2C5C1O)OC(c1ccc(O)c(O)c1)C(O)C4 (stereo not shown) [ixoratannin A-2] |  |  | 33.7 |  |  | 39.0 | > 85 | 23 | > 50

From article PMC4382154, “Screening of the Pan-African Natural Product Library Identifies Ixoratannin A-2 and Boldine as Novel HIV-1 Inhibitors” (PLoS ONE, 2015)
